Experimental data from patent publication US10888575B2, “Combination comprising zidovudine and a carbapenem” (HELPERBY THERAPEUTICS LIMITED, priority 2016, dated 2021).
Read-outs that look alike come from different tables or passages of the source.

Columns and labels:
Assay type in all cases: cell-based
[1] = test system: log phase NDM-1 Klebsiella pneumoniae subsp. pneumoniae (BAA2472); assay: chequerboard method, zidovudine and meropenem; design: scale not given here
Description: The chequerboard method used in Example 1 followed the protocols detailed in Antimicrob Chemo (2013) 68, 374-384.
Log phase growth of NDM-1 Klebsiella pneumoniae subsp. pneumoniae was carried out as described in the art. Zidovudine and meropenem were obtained from commercially available sources. The effects of the combination of the present invention were examined by calculating the fractional inhibitory concentration index (FICI) of each combination, as follows:
(MIC of drug A, tested in combination)/(MIC of drug A, tested alone)+(MIC of drug B, tested in combination)/(MIC of drug B, tested alone).
The interaction of the combination was defined as showing synergy if the FICI was ≤0.5, no interaction if the FICI was >0.5 but <4.0 and antagonism if the FICI was >4.0.

[2] = test system: log phase NDM-1 Escherichia coli (BAA2469); assay: time-kill, zidovudine and meropenem; conditions: 24 hours
Description: (§1) As described hereinabove, time-kill methods are another accepted test for ascertaining the presence or absence of synergy, and involve comparing the dynamic effect of a drug combination with each drug alone when assessing the effect on bacterial log or stationary-growth over time.
(§2) • 1. Bacterial strain used: BAA2471 or BAA2469 strain of Escherichia coli • 2. Growth of bacteria: Log phase growth of BAA2471 or BAA2469 was carried out according to known methods in the art, e.g. SOP R-005-00 Log Phase Growth of Bacteria. • 3. Compound preparation: zidovudine and mereopenem were both obtained from commercial sources (e.g. Sigma-Aldrich). • 4. The overnight culture was diluted with nutrient broth (Oxoid) to 10^7 CFU/ml and 280 μl and 290 μl of the culture was added to each combination well and drug respectively, to make the final concentration of 300 μl. • 5. Incubation of the compounds with the bacterial suspension was carried out for 24 hours. At 0, 2, 4, 7 and 24 hours, CFU counts were performed to measure the kill effects of the drug combination. Results and Discussion

[3] = test system: log phase NDM-1 Escherichia coli (BAA2471); assay: time-kill, zidovudine and meropenem; conditions: 24 hours
Description: as §1, §2

[4] = test system: log phase NDM-1 Klebsiella pneumoniae (BAA2470); assay: chequerboard method, zidovudine, meropenem and colistimethate sodium; design: chequerboard reading: scale not given here
Description: The chequerboard method used in Example 1 was followed, according to the protocols detailed in Antimicrob Chemo (2013) 68, 374-384. The bacterial strain of NDM-1 Klebsiella pneumoniae was BAA2470. Log phase growth of BAA2470 was carried out as described in the art. Zidovudine, meropenem and colistimethate sodium were obtained from commercially available sources. The effects of the triple combination of the present invention were examined by calculating the MIC for each drug alone and in combination.

[5] = test system: log phase NDM-1 K. pneumoniae subsp. pneumoniae (BAA2470); assay: time-kill, zidovudine, meropenem and CMS
Description: as §2, with “BAA2470” for “BAA2471 or BAA2469”, “K. pneumoniae subsp. pneumoniae” for “Escherichia coli”, “zidovudine, mereopenem” for “zidovudine”, “colistimethate sodium” for “mereopenem”, “were” for “were both”, “combination.” for “combination. Results and Discussion”

[6] = zidovudine added at 0.25 μg/ml to the meropenem and CMS combination

Q: `C[C@@H](O)[C@H]1C(=O)N2C(C(=O)O)=C(S[C@@H]3CN[C@H](C(=O)N(C)C)C3)[C@H](C)[C@H]12` [meropenem] was tested. Which chequerboard reading ([1]; zidovudine 0, meropenem 0.25) did it give?
A: Its chequerboard reading is 0.40.

Q: And the chequerboard reading ([1]; zidovudine 0, meropenem 0.5)?
A: The chequerboard reading was 0.41.

Q: And the chequerboard reading ([1]; zidovudine 0, meropenem 1)?
A: Its chequerboard reading is 0.45.

Q: And the chequerboard reading ([1]; zidovudine 0, meropenem 2)?
A: The chequerboard reading was 0.35.

Q: What about the chequerboard reading ([1]; zidovudine 0, meropenem 4) of the same compound?
A: Its chequerboard reading is 0.34.

Q: And the chequerboard reading ([1]; zidovudine 0, meropenem 8)?
A: The chequerboard reading was 0.44.

Q: And the chequerboard reading ([1]; zidovudine 0, meropenem 16)?
A: Its chequerboard reading is 0.44.

Q: And the chequerboard reading ([1]; zidovudine 0, meropenem 32)?
A: The chequerboard reading was 0.25.

Q: What about the chequerboard reading ([1]; zidovudine 0, meropenem 64) of the same compound?
A: The chequerboard reading was 0.21.

Q: And the chequerboard reading ([1]; zidovudine 0, meropenem 128)?
A: Its chequerboard reading is 0.20.

Q: What about the chequerboard reading ([1]; zidovudine 0, meropenem 256) of the same compound?
A: The chequerboard reading was 0.05.

Q: What about the time-kill effect ([2]; meropenem alone 8 mg/L) of the same compound?
A: The time-kill effect was “little or no effect”.

Q: And the time-kill effect ([3]; meropenem alone 256 mg/L)?
A: Its time-kill effect is “little or no effect”.

Q: What about the MIC ([4]; Klebsiella pneumoniae, BAA2470) of the same compound?
A: Its MIC is 256 µg/mL.

Q: What about the MIC ([4]; Klebsiella pneumoniae, BAA2470, zidovudine added at 0.5 μg/ml to the meropenem and CMS combination, read-out: MIC) of the same compound?
A: Its MIC is 64 µg/mL.

Q: And the MIC ([4]; Klebsiella pneumoniae, BAA2470, zidovudine added at 1 μg/ml to the meropenem and CMS combination, read-out: MIC)?
A: Its MIC is 16 µg/mL.

Q: What about the chequerboard reading ([4]; meropenem 8, CMS 0, zidovudine 0 μg/ml) of the same compound?
A: Its chequerboard reading is 0.69.

Q: And the chequerboard reading ([4]; meropenem 16, CMS 0, zidovudine 0 μg/ml)?
A: Its chequerboard reading is 0.70.

Q: And the chequerboard reading ([4]; meropenem 32, CMS 0, zidovudine 0 μg/ml)?
A: Its chequerboard reading is 0.63.

Q: What about the chequerboard reading ([4]; meropenem 64, CMS 0, zidovudine 0 μg/ml) of the same compound?
A: Its chequerboard reading is 0.55.

Q: And the chequerboard reading ([4]; meropenem 128, CMS 0, zidovudine 0 μg/ml)?
A: Its chequerboard reading is 0.36.

Q: And the chequerboard reading ([4]; meropenem 256, CMS 0, zidovudine 0 μg/ml)?
A: Its chequerboard reading is 0.05.

Q: And the chequerboard reading ([4]; meropenem 512, CMS 0, zidovudine 0 μg/ml)?
A: Its chequerboard reading is 0.05.

Q: What about the MIC [4, 6] of the same compound?
A: Its MIC is “remained the same”.

Q: And the “kill of the bacterium” value ([5]; meropenem alone 64 μg/ml, at 4 hours, followed by a regrowth)?
A: Its value is “about 3 logs”.

Q: How did the chequerboard reading ([1]; zidovudine 0.5, meropenem 0) turn out when `Cc1cn([C@H]2C[C@H](N=[N+]=[N-])[C@@H](CO)O2)c(=O)[nH]c1=O` [zidovudine, 1-[(2R,4S, 5S)-4-Azido-5-(hydroxymethyl)oxolan-2-yl]-5-methylpyrimidine-2,4-dione] was run?
A: Its chequerboard reading is 0.16.

Q: What about the chequerboard reading ([1]; zidovudine 1, meropenem 0) of the same compound?
A: Its chequerboard reading is 0.22.

Q: What about the chequerboard reading ([1]; zidovudine 2, meropenem 0) of the same compound?
A: The chequerboard reading was 0.10.

Q: What about the chequerboard reading ([1]; zidovudine 4, meropenem 0) of the same compound?
A: The chequerboard reading was 0.23.

Q: And the chequerboard reading ([1]; zidovudine 8, meropenem 0)?
A: Its chequerboard reading is 0.23.

Q: And the chequerboard reading ([1]; zidovudine 16, meropenem 0)?
A: The chequerboard reading was 0.04.

Q: And the chequerboard reading ([1]; zidovudine 32, meropenem 0)?
A: Its chequerboard reading is 0.26.

Q: What about the time-kill effect ([2]; zidovudine alone 16 mg/L) of the same compound?
A: The time-kill effect was “little or no effect”.

Q: What about the time-kill effect ([3]; zidovudine alone 32 mg/L) of the same compound?
A: Its time-kill effect is “little or no effect”.

Q: And the chequerboard reading ([4]; meropenem 0, CMS 0, zidovudine 0.25 μg/ml)?
A: Its chequerboard reading is 0.31.

Q: And the chequerboard reading ([4]; meropenem 0, CMS 0, zidovudine 0.50 μg/ml)?
A: The chequerboard reading was 0.17.

Q: What about the chequerboard reading ([4]; meropenem 0, CMS 0, zidovudine 1 μg/ml) of the same compound?
A: Its chequerboard reading is 0.11.

Q: What about the chequerboard reading ([4]; meropenem 0, CMS 0, zidovudine 2 μg/ml) of the same compound?
A: The chequerboard reading was 0.08.

Q: And the “kill of the bacterium” value ([5]; zidovudine alone 16 μg/ml, at 2 hours, then growth occurred)?
A: The value was “one”.

Q: What does the source list for colistimethate sodium?
A: chequerboard reading ([4]; meropenem 0, CMS 0.031, zidovudine 0 μg/ml): 0.66; chequerboard reading ([4]; meropenem 0, CMS 0.063, zidovudine 0 μg/ml): 0.61; chequerboard reading ([4]; meropenem 0, CMS 0.125, zidovudine 0 μg/ml): 0.58; chequerboard reading ([4]; meropenem 0, CMS 0.25, zidovudine 0 μg/ml): 0.50; chequerboard reading ([4]; meropenem 0, CMS 0.5, zidovudine 0 μg/ml): 0.51; chequerboard reading ([4]; meropenem 0, CMS 1, zidovudine 0 μg/ml): 0.47; chequerboard reading ([4]; meropenem 0, CMS 2, zidovudine 0 μg/ml): 0.46; chequerboard reading ([4]; meropenem 0, CMS 4, zidovudine 0 μg/ml): 0.42; chequerboard reading ([4]; meropenem 0, CMS 8, zidovudine 0 μg/ml): 0.42; chequerboard reading ([4]; meropenem 0, CMS 16, zidovudine 0 μg/ml): 0.23; chequerboard reading ([4]; meropenem 0, CMS 32, zidovudine 0 μg/ml): 0.05; MIC ([4]; without zidovudine): 32 µg/mL; MIC [4, 6]: 8 µg/mL; MIC ([4]; zidovudine added at 0.5 μg/ml to the meropenem and CMS combination): 0.5 µg/mL; MIC ([4]; zidovudine added at 1 μg/ml to the meropenem and CMS combination): 0.25 µg/mL; time-kill effect ([5]; CMS alone 4 ug/ml): no effect
